According to patent US5451569A, “Pulmonary drug delivery system” (Hong Kong University of Science and Technology R & D …, priority 1994, dated 1995):

What was measured:
rats [1] = assay: Blood glucose after intravenous or tracheal delivery of insulin in cannulated rats
Method: A sufficient number of rats weighing between 350-400 g were selected. In each rat the carotid artery and jugular vein were cannulated for blood sampling and fluid infusion. The trachea was cannulated for drug delivery. Fluids given through the trachea were either in a volume of 100 μl or 200 μl given in two separate doses 30 minutes apart. 40 μl of insulin (at a concentration of 200 units/ml) was mixed with 60 μl of lung surfactant (at a concentration of 40 mg/ml) and was administered by the tracheal route. Insulin without surfactant was administered intravenously to a control sample.

rats [2] = assay: Urine osmolarity and urine volume after tracheal instillation of AVP during 5% glucose infusion; format: in vivo, rat; conditions: 0.6 units AVP by tracheal instillation after 30 minutes of 5% glucose infusion at 10 ml/hr
Method: The trachea was cannulated for drug delivery.
This example illustrates the effect of surfactant on pulmonary vasopressin (AVP) absorption. The experimental details were as follows. 5% glucose was infused at 10 ml/hr throughout the experiment. Urine osmolarity and urine volume resulting from glucose administration alone was contrasted with (1) a delivery of 0.6 units AVP, and (2) delivery of 0.6 units of AVP with 60 μl of surfactant (at a concentration of 40 mg/ml). In (1) and (2) the delivery of AVP and AVP with surfactant was by instillation through the trachea after 30 minutes of glucose infusion which infusion continued. FIGS. 3(a) and (b) show the results in term of urine osmolarity and volume respectively. Infusion of 5% glucose should have the effect of decreasing urine osmolarity and increasing urine volume.

Row | Compound | time after which glucose concentration begins to rise again (rats [1]; intravenous insulin, FIG. 1(a)) | intravenous insulin dose equivalent to tracheal delivery of 8 units of insulin (rats [1]; tracheal delivery of 8 units (40 μl of 200 units/ml), hypoglycemic effect, FIG. 1(b)) [units] | share of insulin that enters the bloodstream (rats [1]; tracheal delivery of 8 units, estimated from the equivalent intravenous dose) | duration of hypoglycemic effect (rats [1]; tracheal delivery, over a three hour period, FIG. 1(b)) | effect on urine osmolarity (rats [2]; FIG. 3(a)) | effect on urine volume (rats [2]; FIG. 3(b))
1 | insulin | approximately 60 mins | 0.5 | about 6.25% | no significant increase in glucose concentration |  | 
2 | NC(=O)CC[C@@H]1NC(=O)[C@H](Cc2ccccc2)NC(=O)[C@H](Cc2ccc(O)cc2)NC(=O)[C@@H](N)CSSC[C@@H](C(=O)N2CCC[C@H]2C(=O)N[C@@H](CCCN=C(N)N)C(=O)NCC(N)=O)NC(=O)[C@H](CC(N)=O)NC1=O [AVP, vasopressin] |  |  |  |  | increases urine osmolarity | reduces urine volume
